Test results published in patent publication US10568852B2, “Combination compositions and their use in methods for treating obesity and obesity-related disorders” (Helmholtz Zentrum Munchen—Deutsches Forschungszentrum fur …, priority 2015, dated 2020).

Tests used:
DIO male mice [1] = experiment: Body weight of diet-induced obese mice under daily subcutaneous treatment; format: in vivo; conditions: daily subcutaneous injections, vs vehicle
Method: (§1) Six- to eight-week-old male C57Bl/6 mice were given ad libitum access to a high-fat, high-sugar diet comprising 58% kcal fat (D12331; Research Diets, New Brunswick, N.J.). The mice had free access to water and were maintained at 23±1° C., constant humidity and on a 12-h light-dark cycle. Mice were maintained under these conditions for a minimum of 20 weeks before study initiation. At study start, mice were randomized into groups matched for body weight and body composition. Compounds were administered subcutaneously 1 h before the onset of the dark phase. Co-administration of compounds was administered by single formulated injections. Assessment of energy intake, energy expenditure and home-cage activity were performed using an indirect calorimetry system (TSE Phenotmaster, TSE Systems, Bad Homburg, Germany).
To assess the effect of icilin alone on the body weight and food intake, DIO male mice were treated 16 days with vehicle (control) or icilin (0.6 mg/kg or 6 mg/kg). […] Compounds were administered by daily subcutaneous injections.
To assess the effect of the combination therapy on the body weight, DIO male mice were treated 4 days with vehicle (control), DMPP alone (10 mg/kg), icilin alone (5 mg/kg) or DMPP (10 mg/ml)+icilin (5 mg/kg). Compounds were administered by daily subcutaneous injections. […]

DIO male mice [2] = experiment: Glucose tolerance (intraperitoneal glucose challenge) in DIO mice; format: in vivo; conditions: 7-days treatment, daily subcutaneous injections, vs vehicle
Method: We also investigated the effect of DMPP alone on glucose tolerance and area under the curve (AUC). Glucose tolerance was assessed following 7-days treatment of DIO male mice with vehicle (control) or DMPP (1 mg/kg, 5 mg/kg or 10 mg/ml). Compounds were administered by daily subcutaneous injections.
Glucose tolerance was assessed following 7-days treatment of DIO male mice with vehicle (control) or icilin (6 mg/kg). […] Compounds were administered by daily subcutaneous injections.
Glucose tolerance was assessed following 7-days treatment of DIO male mice with vehicle (control), DMPP alone (10 mg/kg), icilin alone (5 mg/kg) or DMPP (10 mg/ml)+icilin (5 mg/kg). Compounds were administered by daily subcutaneous injections.

DIO male mice [3] = conditions: 14 days, DMPP 1 mg/kg, 5 mg/kg or 10 mg/ml, daily subcutaneous injections, vs vehicle
Method: as §1
To assess the effect of DMPP alone on the body weight and food intake, diet-induced obese (DIO) male mice were treated 14 days with vehicle (control) or DMPP (1 mg/kg, 5 mg/kg or 10 mg/ml). Compounds were administered by daily subcutaneous injections.

DIO male mice [4] = experiment: Energy expenditure (indirect calorimetry) in DIO mice; format: in vivo; conditions: 5-days treatment, icilin 6 mg/kg, daily subcutaneous injections, vs vehicle
Method: To assess the effect of icilin alone on the body weight and food intake, DIO male mice were treated 16 days with vehicle (control) or icilin (0.6 mg/kg or 6 mg/kg). The results of these treatments are shown in FIGS. 3(A) and 3(B) (control: white circle; icilin: 0.6 mg/kg (star) or 6 mg/kg (black circle)). The effect on energy expenditure was investigated by a 5-days treatment of DIO male mice with vehicle (control) or icilin (6 mg/kg). Compounds were administered by daily subcutaneous injections. The results of these treatments are shown in FIG. 3(C) (control: white bar; icilin: black bar).

DIO male mice [5] = experiment: Fasting glucose in DIO mice; format: in vivo; conditions: 23-days treatment, icilin 6 mg/kg, daily subcutaneous injections, vs vehicle
Method: Glucose tolerance was analyzed in 6 h fasted mice, following an intraperitoneal challenge with 1.5 g glucose per kg body weight. Glucose levels were measured in blood sampled from the tail veins before (0 min) and at 15, 30, 60 and 120 min post injection. To measure glucose-stimulated insulin secretion blood was collected from tail veins into EDTA-coated microvette tubes (Sarstedt) at time points 0, 15 and 60 min post glucose injection. Insulin sensitivity was assessed in 6 h fasted mice following an intraperitoneal injection of 0.7 U of insulin (Actrapid) per kg body weight. Blood glucose levels were measured before (0 min) and at 15, 30, 60 and 120 minutes after the insulin injection. Insulin was measured with commercially available kit (ALPCO Diagnostics, Salem, N.H.) per the manufacturer's instructions.
Glucose tolerance was assessed following 7-days treatment of DIO male mice with vehicle (control) or icilin (6 mg/kg). The results are shown in FIG. 3(D) (control: white; icilin: black). Fasting glucose was assessed following 23-days treatment of DIO male mice with vehicle (control) or icilin (6 mg/kg). Compounds were administered by daily subcutaneous injections. The results are shown in FIG. 3(E) (control: white bar; icilin: black bar).

| SMILES | effect on body weight (DIO male mice [1]; 14 days, DMPP 1 mg/kg, 5 mg/kg or 10 mg/ml) | effect on glucose tolerance and area under the curve (AUC) (DIO male mice [2]; DMPP 1 mg/kg, 5 mg/kg or 10 mg/ml) | effect on food intake (DIO male mice [3]) | effect on body weight (DIO male mice [1]; 16 days, icilin 0.6 mg/kg or 6 mg/kg) | effect on glucose tolerance (DIO male mice [2]; icilin 6 mg/kg) | effect on energy expenditure (DIO male mice [4]) | effect on fasting glucose (DIO male mice [5]) |
| --- | --- | --- | --- | --- | --- | --- | --- |
| C[N+]1(C)CCN(c2ccccc2)CC1 [DMPP, dimethylphenylpiperazinium] | dose-dependent weight lowering effect | dose-dependent improvement in glucose tolerance | reduction in food intake | – | – | – | – |
| O=C1NC(c2cccc([N+](=O)[O-])c2)=CCN1c1ccccc1O [icilin, 3-(2-hydroxyphenyl)-6-(3-nitrophenyl)-3,4-dihydropyrimidin-2(1H)-one] | – | – | – | dose-dependent weight loss | does not lead to a short term improvement in glucose tolerance | increased energy expenditure | improved fasting glucose levels |
